Key:
Assay in all cases: Antibiotic susceptibility testing (colour of media), spiked milk
Assay type in all cases: cell-based
[1] = test system: Staphylococcus aureus; settings: for Colour of media: bacteria sample 5c; for Colour of media in each well: T~16 h, 37° C., plate configuration #3
Protocol: (§1) Tables 36 to 38 which follow show further examples of antibiotic susceptibility testing performed in accordance with the present invention. Table 36, antibiotic susceptibility testing of Staphylococcus aureus in Mueller Hinton and Tryptic Soy Broth at pre-incubation and at between 15-24 h. Tables 37 and 38, antimicrobial susceptibility testing of Streptococcus uberis and E. coli with the addition of gram negative specific antibiotic aztreonam. Tables 38 to 49 show further examples of antibiotic susceptibility testing and the outcomes are aligned with the described inventions.

[2] = test system: Streptococcus uberis; settings: T~16 h, 37° C., bacteria samples 6d, plate configuration #3
Protocol: as §1

[3] = test system: Escherichia coli; settings: 37° C., plate configuration #3
Protocol: as §1

CC1(C)S[C@@H]2[C@H](NC(=O)Cc3ccccc3)C(=O)N2[C@H]1C(=O)O [benzyl penicillin]
Colour of media ([1]; T = 0 hours (pre incubation), drug 0.01 μg/ml, Mueller Hinton (70 ul composition 26)): red
Colour of media ([1]; T = 0 hours (pre incubation), drug 0.01 μg/ml, Tryptic Soy (70 ul composition 2c)): red
Colour of media ([1]; T = 0 hours (pre incubation), drug 0.01 μg/ml, Tryptic Soy, wells H (20 ul composition 2c)): red
Colour of media ([1]; T = 0 hours (pre incubation), drug 0.05 μg/ml, Mueller Hinton (70 ul composition 26)): red
Colour of media ([1]; T = 0 hours (pre incubation), drug 0.05 μg/ml, Tryptic Soy (70 ul composition 2c)): red
Colour of media ([1]; T = 0 hours (pre incubation), drug 0.05 μg/ml, Tryptic Soy, wells H (20 ul composition 2c)): red
Colour of media ([1]; T = 0 hours (pre incubation), drug 0.1 μg/ml, Mueller Hinton (70 ul composition 26)): red
Colour of media ([1]; T = 0 hours (pre incubation), drug 0.1 μg/ml, Tryptic Soy (70 ul composition 2c)): red
Colour of media ([1]; T = 0 hours (pre incubation), drug 0.1 μg/ml, Tryptic Soy, wells H (20 ul composition 2c)): red
Colour of media ([1]; T = 0 hours (pre incubation), drug 0.5 μg/ml, Mueller Hinton (70 ul composition 26)): red
Colour of media ([1]; T = 0 hours (pre incubation), drug 0.5 μg/ml, Tryptic Soy (70 ul composition 2c)): red
Colour of media ([1]; T = 0 hours (pre incubation), drug 0.5 μg/ml, Tryptic Soy, wells H (20 ul composition 2c)): red
Colour of media ([1]; T = 0 hours (pre incubation), drug 1 μg/ml, Mueller Hinton (70 ul composition 26)): red
Colour of media ([1]; T = 0 hours (pre incubation), drug 1 μg/ml, Tryptic Soy (70 ul composition 2c)): red
Colour of media ([1]; T = 0 hours (pre incubation), drug 1 μg/ml, Tryptic Soy, wells H (20 ul composition 2c)): red
Colour of media ([1]; T = 0 hours (pre incubation), drug 5 μg/ml, Mueller Hinton (70 ul composition 26)): red
Colour of media ([1]; T = 0 hours (pre incubation), drug 5 μg/ml, Tryptic Soy (70 ul composition 2c)): red
Colour of media ([1]; T = 0 hours (pre incubation), drug 5 μg/ml, Tryptic Soy, wells H (20 ul composition 2c)): red
Colour of media ([1]; T = 0 hours (pre incubation), drug 10 μg/ml, Mueller Hinton (70 ul composition 26)): red
Colour of media ([1]; T = 0 hours (pre incubation), drug 10 μg/ml, Tryptic Soy (70 ul composition 2c)): red
Colour of media ([1]; T = 0 hours (pre incubation), drug 10 μg/ml, Tryptic Soy, wells H (20 ul composition 2c)): red
Colour of media ([1]; T = 0 hours (pre incubation), drug 50 μg/ml, Mueller Hinton (70 ul composition 26)): red
Colour of media ([1]; T = 0 hours (pre incubation), drug 50 μg/ml, Tryptic Soy (70 ul composition 2c)): red
Colour of media ([1]; T = 0 hours (pre incubation), drug 50 μg/ml, Tryptic Soy, wells H (20 ul composition 2c)): red
Colour of media ([1]; T = 0 hours (pre incubation), drug 100 μg/ml, Mueller Hinton (70 ul composition 26)): red
Colour of media ([1]; T = 0 hours (pre incubation), drug 100 μg/ml, Tryptic Soy (70 ul composition 2c)): red
Colour of media ([1]; T = 0 hours (pre incubation), drug 100 μg/ml, Tryptic Soy, wells H (20 ul composition 2c)): red
Colour of media ([1]; T = 0 hours (pre incubation), drug 500 μg/ml, Mueller Hinton (70 ul composition 26)): red
Colour of media ([1]; T = 0 hours (pre incubation), drug 500 μg/ml, Tryptic Soy (70 ul composition 2c)): red
Colour of media ([1]; T = 0 hours (pre incubation), drug 500 μg/ml, Tryptic Soy, wells H (20 ul composition 2c)): red
Colour of media ([1]; T = 15-24 h at 35° C., drug 0.01 μg/ml, Mueller Hinton (70 ul composition 26)): red
Colour of media ([1]; T = 15-24 h at 35° C., drug 0.01 μg/ml, Tryptic Soy (70 ul composition 2c)): yellow
Colour of media ([1]; T = 15-24 h at 35° C., drug 0.01 μg/ml, Tryptic Soy, wells H (20 ul composition 2c)): red
Colour of media ([1]; T = 15-24 h at 35° C., drug 0.05 μg/ml, Mueller Hinton (70 ul composition 26)): red
Colour of media ([1]; T = 15-24 h at 35° C., drug 0.05 μg/ml, Tryptic Soy (70 ul composition 2c)): red
Colour of media ([1]; T = 15-24 h at 35° C., drug 0.05 μg/ml, Tryptic Soy, wells H (20 ul composition 2c)): red
Colour of media ([1]; T = 15-24 h at 35° C., drug 0.1 μg/ml, Mueller Hinton (70 ul composition 26)): red
Colour of media ([1]; T = 15-24 h at 35° C., drug 0.1 μg/ml, Tryptic Soy (70 ul composition 2c)): red
Colour of media ([1]; T = 15-24 h at 35° C., drug 0.1 μg/ml, Tryptic Soy, wells H (20 ul composition 2c)): red
Colour of media ([1]; T = 15-24 h at 35° C., drug 0.5 μg/ml, Mueller Hinton (70 ul composition 26)): red
Colour of media ([1]; T = 15-24 h at 35° C., drug 0.5 μg/ml, Tryptic Soy (70 ul composition 2c)): red
Colour of media ([1]; T = 15-24 h at 35° C., drug 0.5 μg/ml, Tryptic Soy, wells H (20 ul composition 2c)): red
Colour of media ([1]; T = 15-24 h at 35° C., drug 1 μg/ml, Mueller Hinton (70 ul composition 26)): red
Colour of media ([1]; T = 15-24 h at 35° C., drug 1 μg/ml, Tryptic Soy (70 ul composition 2c)): red
Colour of media ([1]; T = 15-24 h at 35° C., drug 1 μg/ml, Tryptic Soy, wells H (20 ul composition 2c)): red
Colour of media ([1]; T = 15-24 h at 35° C., drug 5 μg/ml, Mueller Hinton (70 ul composition 26)): red
Colour of media ([1]; T = 15-24 h at 35° C., drug 5 μg/ml, Tryptic Soy (70 ul composition 2c)): red
Colour of media ([1]; T = 15-24 h at 35° C., drug 5 μg/ml, Tryptic Soy, wells H (20 ul composition 2c)): red
Colour of media ([1]; T = 15-24 h at 35° C., drug 10 μg/ml, Mueller Hinton (70 ul composition 26)): red
Colour of media ([1]; T = 15-24 h at 35° C., drug 10 μg/ml, Tryptic Soy (70 ul composition 2c)): red
Colour of media ([1]; T = 15-24 h at 35° C., drug 10 μg/ml, Tryptic Soy, wells H (20 ul composition 2c)): red
Colour of media ([1]; T = 15-24 h at 35° C., drug 50 μg/ml, Mueller Hinton (70 ul composition 26)): red
Colour of media ([1]; T = 15-24 h at 35° C., drug 50 μg/ml, Tryptic Soy (70 ul composition 2c)): red
Colour of media ([1]; T = 15-24 h at 35° C., drug 50 μg/ml, Tryptic Soy, wells H (20 ul composition 2c)): red
Colour of media ([1]; T = 15-24 h at 35° C., drug 100 μg/ml, Mueller Hinton (70 ul composition 26)): red
Colour of media ([1]; T = 15-24 h at 35° C., drug 100 μg/ml, Tryptic Soy (70 ul composition 2c)): red
Colour of media ([1]; T = 15-24 h at 35° C., drug 100 μg/ml, Tryptic Soy, wells H (20 ul composition 2c)): red
Colour of media ([1]; T = 15-24 h at 35° C., drug 500 μg/ml, Mueller Hinton (70 ul composition 26)): red
Colour of media ([1]; T = 15-24 h at 35° C., drug 500 μg/ml, Tryptic Soy (70 ul composition 2c)): red
Colour of media ([1]; T = 15-24 h at 35° C., drug 500 μg/ml, Tryptic Soy, wells H (20 ul composition 2c)): red
Colour of media in each well ([1]; bacteria samples 5c, Benzyl Penicillin or Cloxacillin 1 μg/ml): red
Colour of media in each well ([1]; bacteria samples 5c, Benzyl Penicillin or Cloxacillin 10 μg/ml): red
Colour of media in each well ([1]; bacteria samples 5c, Benzyl Penicillin or Cloxacillin 100 μg/ml): red
Colour of media in each well ([1]; bacteria samples 5c, Benzyl Penicillin or Cloxacillin 1,000 μg/ml): red
Colour of media in each well ([1]; bacteria samples 5c, Benzyl Penicillin or Cloxacillin 10,000 μg/ml): red
Colour of media in each well ([1]; bacteria samples 5e, Benzyl Penicillin or Cloxacillin 1 μg/ml): red
Colour of media in each well ([1]; bacteria samples 5e, Benzyl Penicillin or Cloxacillin 10 μg/ml): red
Colour of media in each well ([1]; bacteria samples 5e, Benzyl Penicillin or Cloxacillin 100 μg/ml): red
Colour of media in each well ([1]; bacteria samples 5e, Benzyl Penicillin or Cloxacillin 1,000 μg/ml): red
Colour of media in each well ([1]; bacteria samples 5e, Benzyl Penicillin or Cloxacillin 10,000 μg/ml): red
Colour of media in each well ([2]; Benzyl Penicillin or Cloxacillin 1 μg/ml): red
Colour of media in each well ([2]; Benzyl Penicillin or Cloxacillin 10 μg/ml): red
Colour of media in each well ([2]; Benzyl Penicillin or Cloxacillin 100 μg/ml): red
Colour of media in each well ([2]; Benzyl Penicillin or Cloxacillin 1,000 μg/ml): red
Colour of media in each well ([2]; Benzyl Penicillin or Cloxacillin 10,000 μg/ml): red
Colour of media in each well ([3]; T~16 h, bacteria samples 4c, Benzyl Penicillin or Cloxacillin 1 μg/ml): yellow
Colour of media in each well ([3]; T~16 h, bacteria samples 4c, Benzyl Penicillin or Cloxacillin 10 μg/ml): yellow
Colour of media in each well ([3]; T~16 h, bacteria samples 4c, Benzyl Penicillin or Cloxacillin 100 μg/ml): red
Colour of media in each well ([3]; T~16 h, bacteria samples 4c, Benzyl Penicillin or Cloxacillin 1,000 μg/ml): red
Colour of media in each well ([3]; T~16 h, bacteria samples 4c, Benzyl Penicillin or Cloxacillin 10,000 μg/ml): red
Colour of media in each well ([3]; t~16 h, bacteria samples 4e, Benzyl Penicillin or Cloxacillin 1 μg/ml): yellow
Colour of media in each well ([3]; t~16 h, bacteria samples 4e, Benzyl Penicillin or Cloxacillin 10 μg/ml): yellow
Colour of media in each well ([3]; t~16 h, bacteria samples 4e, Benzyl Penicillin or Cloxacillin 100 μg/ml): Red
Colour of media in each well ([3]; t~16 h, bacteria samples 4e, Benzyl Penicillin or Cloxacillin 1,000 μg/ml): Red
Colour of media in each well ([3]; t~16 h, bacteria samples 4e, Benzyl Penicillin or Cloxacillin 10,000 μg/ml): Red

— US10829796B2, “Bacteria identification and antimicrobial susceptibility test” (priority 2015, dated 2020)
